In EP0218688B1, “DIHALO-STATINE SUBSTITUTED RENIN INHIBITORS” (THE UPJOHN COMPANY, priority 1985, dated 1986):

Target: T1, renin (Homo sapiens, UniProt P00797)
T1 construct: Lyophilized human plasma with 0.1% EDTA is obtained from New England Nuclear; tissue New England Nuclear Plasma Renin Activity Control; host or cells: human plasma (lyophilized, reconstituted)
T1 sequence (P00797 67-406): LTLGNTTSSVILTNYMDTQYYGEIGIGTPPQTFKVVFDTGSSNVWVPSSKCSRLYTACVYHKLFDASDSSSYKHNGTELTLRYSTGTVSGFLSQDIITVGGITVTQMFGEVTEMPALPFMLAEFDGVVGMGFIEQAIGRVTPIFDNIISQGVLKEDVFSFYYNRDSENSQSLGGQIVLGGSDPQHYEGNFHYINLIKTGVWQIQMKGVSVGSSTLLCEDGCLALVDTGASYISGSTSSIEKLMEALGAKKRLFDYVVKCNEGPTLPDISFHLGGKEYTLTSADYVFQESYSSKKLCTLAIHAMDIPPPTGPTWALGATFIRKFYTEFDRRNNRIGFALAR
Assay: GAMMACOAT plasma renin activity (PRA) radioimmunoassay, inhibition of angiotensin I generation in reconstituted human plasma
Format: biochemical
Settings: I50 of RIP compared with I50 of the compound, RIP value of the same assay day
Method: Lyophilized human plasma with 0.1% EDTA is obtained from New England Nuclear, North Billerica, Massachusetts 01862 as "Plasma Renin Activity Control". This lyophilized plasma is reconstituted, on the day of the assay, with cold sterile distilled water according to directions on the vial. The plasma renin activity (PRA) of the reconstituted plasma is assayed with "GAMMACOAT [^125 Plasma Renin Activity Radioimmunoassay Kit" supplied by Clinical Assays, a Division of Travenol Laboratories, Inc., Cambridge, Massachusetts 02139. The procedure used with these kits is carried out essentially as described in the literature which accompanies them. […]
In the case of renin inhibitory peptide (RIP), […] of the 4°C. blank is added to a GAMMACOAT® tube. […] The tubes are then counted in a gamma counter. The results of the RIP are evaluated with the Rodbard Radioimmunoassay Program and the plasma renin activity (PRA) is expressed as […]. […] In addition to l50 values, relative potencies are also calculated. A relative potency is determined by comparing the 150 of RIP to the l50 of the compound. However, it must be emphasized that relative potencies are calculated from the l50 obtained for RIP on the day the compound is assayed and not from the average 15o for RIP.

Row | Structure (SMILES) | relative potency
1 | CC[C@H](C)[C@H](NC(=O)C(F)(F)[C@H](O)[C@H](CC(C)C)NC(=O)[C@H](Cc1c[nH]cn1)NC(=O)[C@H](Cc1ccccc1)NC(=O)OC(C)(C)C)C(=O)NCc1ccccn1 [N-tert-Butyloxycarbonyl-L-phenylalanyl-L-histidyl-2,2-difluoro-statyl-L-isoleucyl-2-pyridylmethylamide] | 1,000
2 | CC[C@H](C)[C@H](NC(=O)C(F)(F)C(=O)C(CC(C)C)NC(=O)[C@H](Cc1c[nH]cn1)NC(=O)[C@H](Cc1ccccc1)NC(=O)OC(C)(C)C)C(=O)NCc1ccccn1 (stereo partly drawn) [N-tert-Butyloxycarbonyl-L-phenylalanyl-L-histidyl-2,2-difluoro-statonyl-L-isoleucyl-2-pyridylmethylamide] | 6100
